Results published in patent US10450356B2, “PRAME derived peptides and immunogenic compositions comprising these” (Academisch Ziekenhuis Leiden H.O.D.N. LUMC, priority 2007, dated 2019).

Target: T1, 20S proteasomes purified from a B-LCL cell line (immunoproteasomes) (Homo sapiens, UniProt P28062+P28065+P40306)
T1 construct: 20S proteasomes were purified from a B-LCL cell line; endogenous in cells; purified after Groettrup et al. 1995
Test: In vitro proteasome mediated cleavage analysis
Type: biochemical
Design: key to Intact in fragment / Intact Fragment: intact epitope found in digestion fragments: (+), present; (-), not present; key to Processing C-term: generation by proteasome-mediated digestion of fragments containing the correct C-terminus: (++) fragments present for >5%; (+) present for <5%; (-) no fragments containing the C-term. were found
Conditions: for Processing C-term: generation by proteasome-mediated digestion of fragments containing the correct C-terminus: 1 h digestion; for Intact Fragment: intact epitope found in digestion fragments: after 1 h digestion; for C-term. generation: generation of C-terminus of the epitope after 1 h digestion; for Intact in fragment: intact epitope found in digestion fragments after 1 h digestion
Method: 20S proteasomes were purified from a B-LCL cell line as described by Groettrup et al. (J. Biol. Chem. 270:23808-23815; 1995). This cell type is known to contain immunoproteasomes. High LMP2 and 7 content was confirmed by 2-D immuno-blotting. To assess kinetics, digestions were performed with different incubation periods. Peptides (27 mers, 20 μg) were incubated with 1 μg of purified proteasome at 37° C. for 1 h, 4 h and 24 h in 300 μl proteasome digestion buffer as described (Eggers, et al. 1995. J. Exp. Med. 182:1865). Trifluoroacetic acid was added to stop the digestion and samples were stored at −20° C. before mass spectrometric analysis.
Electrospray ionization mass spectrometry was performed on a hybrid quadrupole time-of-flight mass spectrometer, a Q-TOF (Micromass), equipped with an on-line nanoelectrospray interface with an approximate flow rate of 250 nL/min. Injections were done with a dedicated micro/nano HPLC autosampler, the FAMOS (LC Packings). Digestion solutions were diluted five times in water-methanol-acetic acid (95:5:1, v/v/v), and trapped on the precolumn (MCA-300-05-C8; LC Packings) in water-methanol-acetic acid (95:5:1, v/v/v). Washing of the precolumn was done for 3 min to remove the buffers present in the digests. Subsequently, the trapped analytes were eluted with a steep gradient going from 70% B to 90% B in 10 min, with a flow of 250 nl/min (A: water-methanol-acetic acid (95:5:1, v/v/v); B: water-methanol-acetic acid (10:90:1, v/v/v)). This low elution rate allows for a few additional MS/MS experiments if necessary during the same elution. Mass spectra were recorded from mass 50-2000 Da every second. The resolution allows direct determination of the monoisotopic mass, also from multiple charged ions. The peaks in the mass spectrum were searched in the digested precursor peptide using the Biolynx/proteins software (Micromass). The intensity of the peaks in the mass spectra was used to establish the relative amounts of peptides generated by proteasome digestion.

Row | Structure (SMILES) | Processing C-term: generation by proteasome-mediated digestion of fragments containing the correct C-terminus | Intact Fragment: intact epitope found in digestion fragments | C-term. generation | Intact in fragment
1 | CC(C)C[C@H](NC(=O)[C@H](Cc1c[nH]cn1)NC(=O)[C@H](CCC(N)=O)NC(=O)[C@H](CC(C)C)NC(=O)[C@H](CC(C)C)NC(=O)[C@H](CO)NC(=O)[C@H](CCC(N)=O)NC(=O)[C@H](CC(C)C)NC(=O)[C@H](C)N)C(=O)O | - | - |  | 
2 | CC[C@H](C)[C@H](NC(=O)[C@H](CC(C)C)NC(=O)[C@H](Cc1c[nH]cn1)NC(=O)[C@H](CCC(N)=O)NC(=O)[C@H](CC(C)C)NC(=O)[C@H](CC(C)C)NC(=O)[C@H](CO)NC(=O)[C@H](CCC(N)=O)NC(=O)[C@H](CC(C)C)NC(=O)[C@H](C)N)C(=O)O | - | - |  | 
3 | CC(C)C[C@H](NC(=O)[C@H](CCC(N)=O)NC(=O)[C@H](CC(=O)O)NC(=O)[C@H](CC(C)C)NC(=O)[C@H](CCCNC(=N)N)NC(=O)CNC(=O)[C@H](CCCNC(=N)N)NC(=O)[C@H](CC(C)C)NC(=O)[C@H](Cc1ccccc1)NC(=O)[C@@H](N)Cc1ccccc1)C(=O)O | - | - |  | 
4 | CC(C)C[C@H](NC(=O)[C@H](CC(C)C)NC(=O)[C@H](CCC(N)=O)NC(=O)[C@H](CC(=O)O)NC(=O)[C@H](CC(C)C)NC(=O)[C@H](CCCNC(=N)N)NC(=O)CNC(=O)[C@H](CCCNC(=N)N)NC(=O)[C@H](CC(C)C)NC(=O)[C@@H](N)Cc1ccccc1)C(=O)O | - | - |  | 
5 | CC(C)C[C@H](NC(=O)[C@@H](NC(=O)[C@H](Cc1c[nH]cn1)NC(=O)[C@@H](NC(=O)[C@H](CC(C)C)NC(=O)[C@H](CC(N)=O)NC(=O)[C@H](CO)NC(=O)[C@H](CC(C)C)NC(=O)CN)[C@@H](C)O)C(C)C)C(=O)O | + ((+) present for <5%) | - |  | 
6 | CC(C)C[C@H](NC(=O)[C@@H]1CCCN1C(=O)[C@H](CCC(=O)O)NC(=O)[C@@H]1CCCN1C(=O)[C@H](CO)NC(=O)[C@@H](NC(=O)[C@H](CC(=O)O)NC(=O)[C@@H](NC(=O)[C@@H](N)CC(C)C)[C@@H](C)O)C(C)C)C(=O)N[C@@H](CCC(N)=O)C(=O)O | + ((+) present for <5%) | + | + (low abundant (+) present for <5%) | +
7 | CC(C)C[C@H](NC(=O)[C@@H]1CCCN1C(=O)[C@H](CCC(=O)O)NC(=O)[C@@H]1CCCN1C(=O)[C@H](CO)NC(=O)[C@@H](NC(=O)[C@H](CC(=O)O)NC(=O)[C@@H](NC(=O)[C@@H](N)CC(C)C)[C@@H](C)O)C(C)C)C(=O)N[C@@H](CCC(N)=O)C(=O)N[C@@H](C)C(=O)O | + ((+) present for <5%) | + | + (low abundant (+) present for <5%) | +
8 | CSCC[C@H](N)C(=O)N[C@@H](CC(C)C)C(=O)N[C@H](C(=O)N[C@@H](CC(=O)O)C(=O)N[C@H](C(=O)N[C@@H](CO)C(=O)N1CCC[C@H]1C(=O)N[C@@H](CCC(=O)O)C(=O)N1CCC[C@H]1C(=O)N[C@@H](CC(C)C)C(=O)O)C(C)C)[C@@H](C)O | - | - |  | 
9 | CC(C)C[C@H](NC(=O)[C@@H](NC(=O)[C@H](Cc1c[nH]cn1)NC(=O)[C@@H](NC(=O)[C@H](CC(C)C)NC(=O)[C@@H](N)CC(N)=O)[C@@H](C)O)C(C)C)C(=O)N[C@@H](Cc1ccc(O)cc1)C(=O)N1CCC[C@H]1C(=O)N[C@H](C(=O)O)C(C)C | - | - |  | 
10 | CC[C@H](C)[C@H](NC(=O)[C@H](CO)NC(=O)CNC(=O)[C@H](Cc1c[nH]c2ccccc12)NC(=O)[C@H](CC(C)C)NC(=O)[C@@H](N)CCCNC(=N)N)C(=O)N[C@@H](CCC(N)=O)C(=O)N[C@@H](CO)C(=O)N[C@@H](CCCNC(=N)N)C(=O)O | - | - |  | 
11 | CC[C@H](C)[C@H](NC(=O)[C@H](Cc1ccc(O)cc1)NC(=O)[C@@H](N)CCCNC(=N)N)C(=O)N[C@@H](CO)C(=O)N[C@@H](CCSC)C(=O)N[C@@H](CO)C(=O)N[C@H](C(=O)N[C@@H](Cc1c[nH]c2ccccc12)C(=O)N[C@H](C(=O)N[C@@H](CO)C(=O)O)[C@@H](C)O)C(C)C | - | - |  | 
12 | CC[C@H](C)[C@H](NC(=O)[C@H](CO)NC(=O)[C@@H](NC(=O)[C@H](CO)NC(=O)[C@H](CC(N)=O)NC(=O)CNC(=O)[C@H](Cc1ccc(O)cc1)NC(=O)[C@H](Cc1ccccc1)NC(=O)[C@@H](N)CO)[C@@H](C)CC)C(=O)O | ++ ((++) fragments present for >5%) | + | ++ (abundant (++) present for >5%) | +
13 | CC[C@H](C)[C@H](NC(=O)[C@@H](N)CO)C(=O)N[C@@H](CO)C(=O)N[C@@H](C)C(=O)N[C@@H](CC(C)C)C(=O)N[C@@H](CCC(N)=O)C(=O)N[C@@H](CO)C(=O)N[C@@H](CC(C)C)C(=O)N[C@@H](CC(C)C)C(=O)O | - | - |  | 
14 | CSCC[C@H](NC(=O)[C@@H](NC(=O)CNC(=O)[C@H](CO)NC(=O)[C@H](CC(C)C)NC(=O)[C@@H](N)CO)C(C)C)C(=O)N[C@@H](CC(C)C)C(=O)N[C@H](C(=O)N[C@@H](CC(=O)O)C(=O)N[C@H](C(=O)O)C(C)C)[C@@H](C)O | - | - |  | 
15 | CC[C@H](C)[C@H](NC(=O)[C@H](CC(=O)O)NC(=O)[C@H](CCC(=O)O)NC(=O)[C@H](Cc1ccc(O)cc1)NC(=O)[C@@H](N)CO)C(=O)N[C@@H](Cc1c[nH]cn1)C(=O)NCC(=O)N[C@H](C(=O)N[C@@H](CC(C)C)C(=O)O)[C@@H](C)O | - | - |  | 
16 | CC[C@H](C)[C@H](NC(=O)[C@H](CO)NC(=O)[C@H](CC(N)=O)NC(=O)CNC(=O)[C@H](Cc1ccc(O)cc1)NC(=O)[C@H](Cc1ccccc1)NC(=O)[C@H](CO)NC(=O)[C@H](CC(C)C)NC(=O)[C@@H](N)[C@@H](C)O)C(=O)O | - | - | ++ (abundant (++) present for >5%) | +
